Data set [1] concerns the target T1, Cytochrome P450 3A4 (Homo sapiens, UniProt P08684). The data set is described as follows: Time dependent inhibition of human liver microsome CYP3A4 assessed as change in midazolam metabolism at 60 uM by two-step reaction. Conditions: microsomes. Details: scale not given: the % may be the effect or the level left. The data set is classed as ADME.
The subject of a further data set is Salmonella typhimurium. The data set is described as follows: Mutagenic activity in Salmonella typhimurium assessed as fold increase in colony forming units by Bioluminescent Ames assay relative to control. The data set is classed as toxicity, organism-based. The conditions noted are these: salmonella enterica subsp. enterica serovar typhimurium.
The nature of data set [2]: Half life in rat. The data set is classed as ADME, organism-based. The conditions noted are these: in vivo.
In data set [3] the target is T1, Cytochrome P450 3A4. Description: Time dependent inhibition of CYP3A4. Conditions: TDE = time-dependent effect. The data set is classed as ADME.
Data set [4] in a line: Clearance in rat. The format is ADME, organism-based. The conditions noted are these: in vivo.
The nature of data set [5]: Oral bioavailability in rat. The data set is classed as ADME, organism-based. The conditions noted are these: in vivo.
For data set [6], the target named is Serine/threonine-protein kinase B-raf (Homo sapiens, UniProt P15056, V600E). Description: Inhibition of B-Raf V600E mutant -mediated MEK phosphorylation.
Chain of Serine/threonine-protein kinase B-raf (P15056 2-766 V600E limits assumed): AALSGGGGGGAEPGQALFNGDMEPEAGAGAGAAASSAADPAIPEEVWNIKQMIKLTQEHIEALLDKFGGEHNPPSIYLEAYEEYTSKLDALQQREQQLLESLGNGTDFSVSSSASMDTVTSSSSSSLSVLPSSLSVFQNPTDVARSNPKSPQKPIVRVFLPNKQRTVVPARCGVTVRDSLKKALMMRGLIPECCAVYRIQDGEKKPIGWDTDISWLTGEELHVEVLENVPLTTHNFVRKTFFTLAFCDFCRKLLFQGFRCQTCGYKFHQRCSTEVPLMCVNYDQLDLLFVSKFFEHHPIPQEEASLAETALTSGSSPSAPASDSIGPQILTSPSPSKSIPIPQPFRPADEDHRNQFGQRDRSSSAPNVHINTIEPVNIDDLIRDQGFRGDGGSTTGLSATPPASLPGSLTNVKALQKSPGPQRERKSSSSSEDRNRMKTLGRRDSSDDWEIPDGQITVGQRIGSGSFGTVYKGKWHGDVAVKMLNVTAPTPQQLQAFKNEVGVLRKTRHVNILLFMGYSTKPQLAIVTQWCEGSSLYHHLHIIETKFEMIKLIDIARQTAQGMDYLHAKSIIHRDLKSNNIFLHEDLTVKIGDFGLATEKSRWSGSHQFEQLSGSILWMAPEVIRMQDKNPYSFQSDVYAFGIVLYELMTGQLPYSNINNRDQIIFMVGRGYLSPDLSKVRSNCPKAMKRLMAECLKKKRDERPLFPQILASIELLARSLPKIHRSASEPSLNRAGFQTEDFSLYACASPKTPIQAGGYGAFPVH
A short description of data set [7]: Solubility of the compound. The format is physicochemical.

Values after ≈ are worked out from the molar mass of the structure shown.

The record followed here is ChEMBL document CHEMBL2203228, “Structural modifications of a 3-methoxy-2-aminopyridine compound to reduce potential for mutagenicity and time-dependent drug-drug interaction” (Bioorg Med Chem Lett, 2012).

T1 sequence (P08684 whole entry): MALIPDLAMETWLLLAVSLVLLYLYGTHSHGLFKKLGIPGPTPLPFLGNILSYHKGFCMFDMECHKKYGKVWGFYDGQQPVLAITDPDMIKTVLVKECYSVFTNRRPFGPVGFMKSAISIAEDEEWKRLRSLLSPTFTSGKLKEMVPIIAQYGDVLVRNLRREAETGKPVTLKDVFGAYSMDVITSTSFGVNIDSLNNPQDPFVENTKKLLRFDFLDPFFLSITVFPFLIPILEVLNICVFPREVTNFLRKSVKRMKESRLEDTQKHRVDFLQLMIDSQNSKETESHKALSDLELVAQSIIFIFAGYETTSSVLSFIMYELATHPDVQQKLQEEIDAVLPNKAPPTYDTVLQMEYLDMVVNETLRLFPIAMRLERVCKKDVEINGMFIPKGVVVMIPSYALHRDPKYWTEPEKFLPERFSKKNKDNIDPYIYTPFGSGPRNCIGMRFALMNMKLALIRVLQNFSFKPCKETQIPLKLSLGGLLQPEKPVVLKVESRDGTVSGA

For the compound `CC(=O)c1cc(-c2nn(C(C)C)cc2-c2ccnc(NC[C@H](C)O)n2)cnc1N`, the Activity at Cytochrome P450 3A4 [1] is given as less than 30%. Further, the “fold change (FC)” value with Salmonella typhimurium was less than 2.
With `COc1cncc(-c2nn(C(C)C)cc2-c2ccnc(NC[C@H](C)O)n2)c1`, the Activity at Cytochrome P450 3A4 [1] is listed as less than 30%. Moreover, in the data set on Salmonella typhimurium, the “fold change (FC)” value is recorded as less than 2.
For `CC(C)n1cc(-c2ccnc(NC[C@H](C)O)n2)c(-c2cnc3[nH]ncc3c2)n1`, in that order: less than 30% and less than 2.
For `CC(C)n1cc(-c2ccnc(NC[C@H](C)O)n2)c(-c2cnc3[nH]ccc3c2)n1`, in that order: 11% and less than 2.
For `Cc1c[nH]c2ncc(-c3nn(C(C)C)cc3-c3ccnc(NC[C@H](C)O)n3)cc12`, in that order: 11% and less than 2.
As for `CC(C)n1cc(-c2ccnc(NC[C@H](C)O)n2)c(-c2cnc3[nH]cc(Cl)c3c2)n1`, the Activity at Cytochrome P450 3A4 [1] was 11%. The “fold change (FC)” value in the data set on Salmonella typhimurium is less than 2.
For the compound `COc1cc(-c2nn(C(C)C)cc2-c2ccnc(NC[C@H](C)O)n2)cnc1N`, the half-life (usually the time in which the quantity being followed falls by half) in data set [2] is 266 min. Moreover, on Cytochrome P450 3A4 [1], the Activity worked out at 13%. At Cytochrome P450 3A4 [3], the “inhibition (INH)” value is “tde”. Besides, the clearance (in general, the rate of elimination divided by the concentration) in data set [4] was determined as 56.3 mL/min/kg. Besides, the bioavailability (usually dose-corrected exposure relative to a reference, in per cent) in data set [5] is 43%. For the same compound, in data set [6], the IC50 (in general, the concentration that inhibits the measured activity by half) worked out at 6.5 nM. In addition, in data set [7], the solubility (usually the dissolved amount per volume that the medium holds) stood at 503 µM (≈ 193 µg/mL). In addition, in the data set on Salmonella typhimurium, the Activity entry is given as “Non-toxic” and the “fold change (FC)” value was determined as 4.
As to `COc1cc(-c2nn(C(C)C)cc2-c2ccnc(NC[C@H](C)O)n2)c(C)nc1N`, the Activity result with Salmonella typhimurium is listed as “Toxic”.
Regarding `COc1nc(-c2nn(C(C)C)cc2-c2ccnc(NC[C@H](C)O)n2)cnc1N`, the Activity at Cytochrome P450 3A4 [1] is on record as 30%. In addition, the “fold change (FC)” value in the data set with Salmonella typhimurium is reported as 4.
